Results taken from patent publication US20230241102A1, “FORMULATIONS OF CALCIUM AND PHOSPHATE FOR ORAL INFLAMMATION” (Bausch Health Companies Inc., priority 2014, published 2023).

Assays:
[1] = pH of the resulting liquid (pH meter Mettler Toledo Seven Multi, USP<791>); details: for pH trial 1 / pH trial 2: Table 2, 30 ml tap water, room temperature
Description: (§1) To evaluate dissolution, the components were weighed and put in centrifuge tubes containing 30 ml of tap water at room temperature. The tubes were gently stirred by hand (up and down movements) for 30 seconds to 1 minute. The dispersions were then assessed visually for turbidity and presence of particles in suspension or precipitate. pH was also assessed using pH meter Mettler Toledo Seven Multi and following USP<791>method.
(§2) Visual solubility tests were done in duplicate using 3 different calcium sources. The quantity of material was adjusted in order to maintain a consistent calcium content from each different salt.
The following trials were performed in order to assess visual solubility and pH levels of various formulations.

[2] = Visual solubility test: components mixed in 30 ml tap water, assessed visually for turbidity, particles in suspension or precipitate; details: Table 2, calcium sources at consistent calcium content, room temperature, same observation for both trials
Description: Table 1 provides a description of the visual solubility tests performed using various components (including a commercial sample), with the quantities of each product weighed, and visual observations after the components were mixed in water.
as §1, §2
The following trials were performed in order to assess visual solubility and pH levels of various formulations. […] All lots were prepared by dry blending by hand of ingredients using spatula.

Compound	pH trial 1 [1]	pH trial 2 [1]	Observations [2]	pH ([1]; Tables 3-5, calcium salt with dibasic and monobasic sodium phosphate in 30 ml water)
O.O.[Ca+2].[Cl-].[Cl-] [Calcium Chloride dihydrate]	7.65	7.67	–	–
CC(O)C(=O)[O-].O=C([O-])[C@H](O)[C@@H](O)[C@H](O)[C@H](O)CO.[Ca+2] [Calcium lactate gluconate]	7.73	7.74	sufficiently soluble	–
Calcium glycerophosphate	8.08	8.07	–	higher pH
